Data taken from PMC5584973, “Characterization of novel bangle lectin from Photorhabdus asymbiotica with dual sugar-binding specificity and its effect on host immunity” (PLoS Pathogens, 2017).
Read-outs that look alike come from different tables or passages of the source.

Columns and labels:
[1] = target: T1, PHL (Photorhabdus asymbiotica, UniProt C7BLE4); experiment: Haemagglutination inhibition assay with PHL; format: cell-based; conditions: for Potency towards L-fucose: haemagglutination inhibition, from MIC; for MIC (minimal inhibitory concentration) of haemagglutination by PHL: microscopy
Method: A haemagglutination inhibition assay was performed to determine the specificity and semi-quantitative affinity of PHL interaction with the saccharides. A wide range of monosaccharides at concentrations from 50 mM to 0.5 mM were used for determining the lowest inhibiting concentration. A 20 μl mixture composed of 5 μl PHL (2mg/ml), 5 μl saccharide, and 10 μl 10% RBCs was prepared (all components of reaction were in PBS buffer). After 10 minutes, the reaction was observed using a Levenhuk microscope.

[2] = tested on: phenoloxidase (PO) in haemolymph of G. mellonella; experiment: Phenoloxidase activity in insect haemolymph; format: biochemical, Galleria mellonella; conditions: for PHL activation of melanisation in the presence of sugar: 0.2M sugar, PHL 475 μg
Method: (§1) Larvae of the greater wax moth, Galleria mellonella, were reared on an artificial diet at 30 ± 1°C in constant darkness. Haemolymph was collected from the seventh instar larvae by cutting a proleg and pooling the haemolymph into a tube containing phenylthiourea (1 mg/ml in PBS; haemolymph mixed with phenylthiourea in the ratio 9:1 [v/v]) or used directly for the determination of phenoloxidase activity.
PO activity was measured according to previously published studies. Haemolymph of G. mellonella (5 μl) was collected directly to 95 μl of PHL (475 μg in PBS for all experiments except dose-dependence assay where different dilutions of PHL were used), PLL (475 μg in PBS), BSA (475 μg in PBS) or PBS (pH 7.4) and incubated for 10 min at room temperature. After incubation, 40 μl of reaction mixture was transported to the microplate well and 160 μl of 3,4-dihydroxy-DL-phenylalanine (3 mg/ml in PBS) was added as substrate. The reaction was allowed to proceed for 30 min, and absorbance was measured in 2-min intervals at 492 nm with a Sunrise reader (Tecan, Switzerland). PO activity was expressed as linear increase in absorbance per minute. For the inhibition assay, PHL was pre-incubated with 0.2M L-Fuc or Me-α-L-Fuc for 10 min at room temperature prior to mixing with haemolymph.

[3] = tested on: PHL; experiment: Isothermal titration calorimetry (ITC); format: binding, Photorhabdus asymbiotica; conditions: ITC, PLL data ref 21
Method: (§2) ITC experiments were performed using an ITC200 calorimeter (Malvern, England). Experiments were performed at 25°C in buffer A (300 mM NaCl, 20 mM Tris/HCl, pH 7.5). Carbohydrate ligands were dissolved in the same buffer. Protein in the cell (50 μM) was titrated by consecutive addition (2 μl) of the ligand in the syringe (1.5–50 mM) while stirring at 1000 rpm. Control experiments performed with injections of buffer in the protein solution yielded insignificant signals. Integrated heat effects were analyzed by nonlinear regression using a single-site binding model in Origin 7 (Microcal). The experimental data fitted to a theoretical titration curve brought up stoichiometry (n), association constant Ka, and the enthalpy of binding ΔH. The other thermodynamic parameters such as free energy (ΔG) and […] (ΔS) were calculated from the equation ΔG = ΔH-TΔS = -RTlnKa, where T is the absolute temperature and R is the molar gas constant (8.314 J.mol^-1.K^-1). At least two independent titrations were carried out for each tested ligand.

[4] = target: T1, PHL; experiment: Isothermal titration calorimetry (ITC); format: binding
Method: as §2

[5] = tested on: PHL; experiment: SPR inhibition of PHL binding to immobilized L-fucoside; set-up: species or system Photorhabdus asymbiotica; conditions: IC50 from SPR inhibition, PLL data ref 21
Method: (§3) SPR inhibition experiments were performed using the same conditions described above. The PHL lectin (0.25 μM final concentration) was mixed with various concentrations of inhibitors (1M – 0.01 mM) and injected onto the sensor chip. Pure PHL lectin was used as a control (0% inhibition). The response of the lectin bound to the sugar surface at equilibrium was plotted against the concentration of inhibitor in order to determine IC50.

[6] = target: T1, PHL; experiment: as above
Method: as §3

[7] = tested on: human serum; experiment: Antimicrobial activity of human serum against E. coli K12; conditions: 320 μg protein
Method: Samples of human blood were collected from healthy donors to tubes without anticoagulant and anonymized prior to experiments. The blood was allowed to clot for at least 10 min, centrifuged at 2,000 g, 10 min to remove the clot and the collected serum was used immediately for subsequent analysis. The serum was analysed within two hours after blood collection in all experiments.
(§4) The antimicrobial activity of human sera and insect haemolymph was measured luminometrically using the bioluminescent Gram-negative bacteria Escherichia coli K12 [59]. We have modified previously published protocol to measure the effect of PHL [60]. […] After treatment, 120 μl of bacteria working solution containing 100,000 E. coli K12 cells in PBS (pH 7.0) was added to the reaction well and the luminescence signal was recorded with a Chameleon V luminometer (Hidex, Finland) in counts per second (CPS). Reaction wells with PHL, BSA or PBS in an 80 μl volume of the same concentrations and pH as above were measured with E. coli K12 in each experiment as viability controls, not affected by human serum nor haemolymph. The luminescence produced by E. coli K12 corresponds to the bacterial viability. The antimicrobial effect of human sera and haemolymph was determined as time elapsed until the luminescence signal decreased under 1000 or 5000 CPS, respectively. […]

[8] = tested on: whole human blood; experiment: Oxidative burst (ROS production) in human blood; format: cell-based; conditions: 125 μg protein
Method: ROS production was measured according to previously published work in whole human blood within 15 min of sampling. The fresh human blood (2 μl diluted 40x in HBSS; 0.137 M NaCl, 5.4 mM KCl, 0.44 mM KH2PO4, 0.25 mM Na2HPO4, 4.2 mM NaHCO3, 1.0 mM MgSO4, 1.3 mM CaCl2, 5.55 mM glucose; pH 7.4) was mixed with 25 μl of PHL (125 μg in PBS for all experiments except dose-dependence assay where different dilutions of PHL were used), BSA (125 μg in PBS) or PBS (pH 7.4) and incubated for 10 min at 37°C or room temperature. After incubation, 25 μl of the luminophore (10 mM luminol) and 25 μl of activator zymosan A (2.5 mg/ml in HBSS) was added to activate ROS production in phagocytes. To detect the constitutive production of ROS, zymosan was replaced with the same volume of HBSS. Luminescence was recorded with a Chameleon V luminometer (Hidex, Finland) for two hours at 37°C or room temperature, and the integrals of reactions were compared. Results from experimental treatments (incubation of blood with PHL and BSA) were normalised to the integral of the oxidative response in the respective blood sample with PBS.

[9] = tested on: G. mellonella haemolymph; experiment: Antimicrobial activity of insect haemolymph against E. coli K12; set-up: species or system Galleria mellonella; conditions: 320 μg protein
Method: as §1, §4

[10] = ITC at 25°C, stoichiometry fixed to 3, read-out: KD (n = 3)
[11] = ITC at 25°C, stoichiometry fixed to 4, read-out: KD (n = 4)

T1 sequence (C7BLE4 1-369): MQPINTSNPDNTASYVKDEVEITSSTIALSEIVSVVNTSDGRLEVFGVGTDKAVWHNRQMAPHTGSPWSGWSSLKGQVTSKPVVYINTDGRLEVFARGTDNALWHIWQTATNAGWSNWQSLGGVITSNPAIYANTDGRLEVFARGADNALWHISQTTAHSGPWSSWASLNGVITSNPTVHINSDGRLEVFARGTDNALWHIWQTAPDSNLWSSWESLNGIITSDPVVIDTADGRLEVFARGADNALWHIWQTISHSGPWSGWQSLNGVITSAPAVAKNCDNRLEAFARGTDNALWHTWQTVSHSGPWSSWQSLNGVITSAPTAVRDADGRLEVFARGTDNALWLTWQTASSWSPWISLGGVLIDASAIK

Row | Compound | Potency towards L-fucose [1] | MIC (minimal inhibitory concentration) of haemagglutination by PHL [1] [µM] | PHL activation of melanisation in the presence of sugar [2] | fold higher affinity of PHL than PLL [3] | Kd [4, 10] [µM] | Kd [4, 11] [µM] | binding stoichiometry ([4]; ITC, fitted) | Kd ([4]; ITC, stoichiometry not fixed, read-out: equilibrium dissociation constant) [µM] | fold better inhibition effect for PHL than for PLL [5] [fold] | IC50 ([6]; SPR, PHL 0.25 μM binding to immobilized L-fucoside, 25°C, read-out: IC50) [µM] | IC50 [6] [µM] | effect on PO activity (melanisation) ([2]; G. mellonella haemolymph, 475 μg for BSA, PLL) | effect on antimicrobial activity against E. coli K12 [7] | ROS production (integral of luminescence) ([8]; blood challenged with activator zymosan A) | constitutive ROS production (integral of luminescence) ([8]; whole human blood A/B/O, without activator, 2 hours) | effect on antimicrobial activity against E. coli K12 [9]
1 | CO[C@@H]1O[C@@H](C)[C@@H](O)[C@@H](O)[C@@H]1O [Me-α-L-Fuc, Methyl-α-L-fucopyranoside] | 8 | 390 | inhibited | approx. 4 fold | 260 ± 40 | 210 | approx. 2.9 | 270 | 42 | 40 | – | – | – | – | – | –
2 | C[C@H](O)[C@@H](O)[C@@H](O)[C@H](O)C=O [L-Fuc, L-fucose] | 1 | 3125 | inhibited | approx. 4 fold | 1400 ± 30 | 1330 ± 40 | – | – | 15 | – | 360 | – | – | – | – | –
3 | bovine serum albumin [BSA] | – | – | – | – | – | – | – | – | – | – | – | did not have any effect | not able to block the effect of antimicrobial factors | 5.3±1.3 x 10^6 CPS*min | 26.9±16.9 x 10^3 CPS*min | not able to block the effect of antimicrobial factors
